PMC8629650, “Novel Elongator Protein 2 Inhibitors Mitigating Tumor Necrosis Factor-α Induced Osteogenic Differentiation Inhibition” (BioMed Research International, 2021)
Read-outs that look alike come from different tables or passages of the source.

Experiments:
mouse ELP2 protein = target: T1, mouse ELP2 protein (Mus musculus, UniProt Q91WG4); assay: Surface plasmon resonance (SPR) affinity analysis, compounds fixed on the chip; assay type: binding; settings: for koff: read-out: Avg Koff; for kon: read-out: Avg Kon; for dissociation rate (in words): excluded from further testing
T1 sequence (Q91WG4 1-831): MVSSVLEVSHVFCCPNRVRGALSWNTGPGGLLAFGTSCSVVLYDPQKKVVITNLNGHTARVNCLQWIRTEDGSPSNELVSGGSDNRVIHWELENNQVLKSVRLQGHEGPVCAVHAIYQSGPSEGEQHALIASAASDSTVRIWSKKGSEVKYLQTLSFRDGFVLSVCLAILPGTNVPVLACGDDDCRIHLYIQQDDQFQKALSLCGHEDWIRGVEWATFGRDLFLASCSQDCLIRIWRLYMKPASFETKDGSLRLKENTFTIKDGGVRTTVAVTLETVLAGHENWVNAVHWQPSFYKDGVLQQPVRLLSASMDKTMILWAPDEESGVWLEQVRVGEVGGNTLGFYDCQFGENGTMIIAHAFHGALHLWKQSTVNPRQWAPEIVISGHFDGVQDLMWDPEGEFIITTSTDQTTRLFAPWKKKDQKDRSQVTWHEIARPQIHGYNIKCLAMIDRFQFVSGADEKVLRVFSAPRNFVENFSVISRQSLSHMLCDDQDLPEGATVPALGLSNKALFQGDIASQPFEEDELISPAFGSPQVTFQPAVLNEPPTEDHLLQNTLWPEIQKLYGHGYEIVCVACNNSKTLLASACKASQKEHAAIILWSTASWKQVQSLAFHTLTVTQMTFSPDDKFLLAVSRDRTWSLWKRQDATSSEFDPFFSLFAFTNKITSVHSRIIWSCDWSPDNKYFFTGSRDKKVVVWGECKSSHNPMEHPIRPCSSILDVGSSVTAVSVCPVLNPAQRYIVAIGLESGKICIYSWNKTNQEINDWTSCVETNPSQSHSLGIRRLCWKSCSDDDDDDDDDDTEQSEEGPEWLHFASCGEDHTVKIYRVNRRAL
Protocol: To validate the binding affinity of the candidate compounds with ELP2 protein, we tested the binding affinity through SPR assay. The experiment was performed as previous reported. Briefly, the candidate molecules are crossed onto the chip surface by hydrogen substitution reaction. During the experimental SPR, the chips were first primed with running buffer (1x PBS containing 5% DMSO). […] To validate the reliability of our method, we selected biotin and rapamycin binding with FKBP12 as a system control. Additionally, the solvents DMSO for compounds and PBS (pH = 7.0) for proteins were measured individually as blank controls and background noise controls.
Under the technique of photo-cross-linker biosensor chip, the candidate compounds were immobilized onto the chemically modified chip surface in random orientations and without any attached label or linker. After the compounds were fixed onto the surface of the chip, ELP2 protein solved in PBS were passed over the chip surface. The original sensor gram information was collected in real time.
The raw sensor gram information was collected in real time. The binding of each compound to the ELP2 protein during each cycle is represented by the response unit (RU) of surface resonance.

C2C12 cells [1] = assay: Alkaline phosphatase (ALP) activity under TNF-α-induced osteogenic differentiation inhibition, ID model; assay type: cell-based; settings: for effect on TNF-α-induced inhibition of osteoblast differentiation (ALP stain and activity) / EC50: C2C12 cells; for effect on TNF-α-induced inhibition of osteoblast differentiation (ALP stain and activity): vs. TNF-α group; for EC50: Mus musculus, ID model, TNF-α; for effect on TNF-α-induced inhibition (ALP), data not shown: cell model not specified (C2C12 / MC3T3-E1)
Protocol: (§1) C2C12 cells were kept in DMEM complemented with the 10% fetal dairy serum and 1% penicillin/streptomycin and MC3T3-E1 cells in minimally needed culture medium (MEM, HyClone, GE Healthcare, USA) supplemented with 10% fetal bovine serum and 1% penicillin/streptomycin, were grown individually, and then cultured at 37.0°C, 5% CO2. As previously reported, cells were cultured for differentiation induction in the presence of TNF-α with or without our candidate compounds.
(§2) […] was detected by ALP activity via the alkaline phosphatase assay kit followed by the instruction. A BioTek microplate spectrophotometer was used to assay the apparent density at the wavelength of 405 nm. ALP activity values are equally common in the density protein found in stem cells determined to use the BCA Protein Assay Kit.
(§3) To determine the effect of the candidate compounds on TNF-α-induced osteogenic differentiation inhibition, we examined the activity of osteogenic marker alkaline phosphatase in the cells. As mentioned in Materials and Method, cells were grown in an adequate osteoblast differentiation environment and tested the alkaline phosphatase activity.
(§4) Figure 3 The ALP stain and activity measurements of 2# and 5# candidate on C2C12 and MC3T3-E1 cell osteogenic differentiations. 2# and 5# compounds show remarkable mitigation against TNF-α induced ALP activity inhibition. The ALP staining observation in each group (a, c). The relative ALP activity were measured from the cell lysates of each group (b, d). Data are mean ± SD; ^∗P < 0.05, ^∗∗P < 0.01, each experiment group vs. the TNF-α treatment cell group.

MC3T3-E1 cells [2] = assay: Alkaline phosphatase (ALP) activity under TNF-α-induced osteogenic differentiation inhibition, SD model; assay type: cell-based; settings: for EC50: Mus musculus, SD model, TNF-α; for effect on TNF-α-induced inhibition of osteoblast differentiation (ALP stain and activity): vs. TNF-α group
Protocol: as §1, §2, §3, §4

C2C12 cells [3] = assay: Mineralization assessment by Alizarin Red S staining; assay type: cell-based; settings: day 35, vs. TNF-α control
Excerpt: (§5) As reported, in two differentiation cell models, the culture medium was replaced every 3 days till 35th day. Mineralization of the cell was found by staining using the Optimized Alizarin Red S Stain Kit by the kit instructions.
(§6) In order to test the function of the candidate compounds on the mineralization activity during osteoblasts differentiation, the self-differentiation (SD) model and inflammatory-differentiated (ID) model cells were stained with Alizarin Red S staining on day 35 after differentiation induction, and the mineralization activity of each group can be estimated by the number of stained spots.
(§7) Figure 5 Alizarin Red S staining of differentiated osteogenic cells, the self-differentiation (SD) model, and inflammatory-differentiated (ID) model cells were stained with Alizarin Red S staining on day 35 after differentiation induction, and the mineralization activity of each group can be estimated by the number of stained spots (bar = 50 μm).

MC3T3-E1 cells [4] = assay: as above; assay type: cell-based; settings: day 35, vs. TNF-α control
Excerpt: as §5, §6, §7

[5] = system: COL-I, ALP, OCN, BMP-2, RUNX-2 and OSX genes in C2C12 and MC3T3-E1 cells; assay: Q-PCR of osteogenic differentiation marker genes after TNF-α stimulation; assay type: cell-based; settings: day 7, C2C12 and MC3T3-E1, vs. TNF-α-stimulated cells
Protocol: The total mRNA was extracted from cell culture using TRIzol reagent (Thermo Scientific USA). The concentration and quality of the RNA were checked using a NanoDrop™ 8000 spectrophotometer, and cDNA was then synthesized. Gene expression according to the recommendations of the reverse transcription kit was detected. Host gene β-actin was selected as the reference gene, and the gene expression level analysis was calculated by the 2^-ΔΔCt quantification method.
(§8) In order to investigate the changes in osteogenic differentiation associated molecules including COL-I, ALP, OCN, BMP-2, RUNX-2, and OSX genes, we performed Q-PCR and Western blot analysis on the differentiation cellular models on the 7th day after osteoblast cell differentiation are shown in Table 2. […] The level of above gene expression was raised in the 2# and the 5# candidate-treated cell with cell morphology phenotype differentiation when compared to the cell stimulated with TNF-α (Figure 6). A further study of the expression of osteoblastic markers at the protein level was performed using Western blot.
Figure 6 Effect of 2# and 5# treatment on TNF-α-stimulated C2C12 (a) and MC3T3-E1 (b) cell osteoblast differentiation-associated marker gene expression. Q-PCR analysis in the differentiation was conducted on the 7th day after osteoblast cell differentiation in the ID and SD models. […]

[6] = system: osteogenic differentiation marker proteins in differentiation model cells; assay: Western blot of osteogenic differentiation markers after TNF-α treatment; assay type: cell-based; settings: day 7, vs. TNF-α treatment
Protocol: After treatment, using PBS to wash the cells, the cells were lysed with RIPA lysis buffer. The cell lysate was then separated by SDS-PAGE. All proteins were transferred to PVDF membranes (Bio-Rad, USA). The PVDF membrane was then blocked with 5% skim milk in Tris-buffered physiological saline -0.1% Tween-20 for 1 hour and incubated with the following primary antibody: anti-ALP antibody (rabbit), anti-COL-1 antibody (mouse), anti-OCN antibody (mouse), anti-BMP-2 antibody (mouse), anti-Runx2 antibody (mouse), Anti-Osterix (rabbit), and anti-β-actin (mouse), followed by suitable horseradish peroxidase- (HRP-) labeled secondary antibody, blocking buffer for goat anti-rabbit IgG. Images were captured using G&E imaging system.
as §8, with “blot. […]” for “blot.”

[7] = SPR, Elp2 protein 200 nM to 3200 nM passed over the immobilized compound
[8] = SPR, Elp2 protein 200 nM to 3200 nM passed over the immobilized compound, read-out: Avg KD

## COc1ccc2c(c1)C(CCn1c(C)cc(O)cc1=O)C(=O)N2 (centres unmarked) [10#]
Mouse ELP2 protein; [7]
  koff: 0.504 s⁻¹
  kon: 2.18 M⁻¹ s⁻¹

## Cc1cc(=O)c2c(o1)[C@H](c1cccc(O)c1)CC(=O)O2 [3#]
Mouse ELP2 protein; [7]
  koff: 0.45 s⁻¹
  kon: 2.31 M⁻¹ s⁻¹

## Cc1cc(O)cc(=O)n1C[C@H](O)c1ccc(O)cc1 [9#]
Mouse ELP2 protein; [8]
  Kd: 149 µM
Mouse ELP2 protein; [7]
  koff: 0.075 s⁻¹
  kon: 502 M⁻¹ s⁻¹
Mouse ELP2 protein; SPR
  dissociation rate (in words): much faster dissociation rates

## COCn1ncnc1NCCn1c(C)cc(O)cc1=O [4#]
Mouse ELP2 protein; [7]
  koff: 0.342 s⁻¹
  kon: 1.85 M⁻¹ s⁻¹

## COc1ccc([C@H](CC(=O)N[C@@H](Cc2ccccc2)C(N)=O)c2oc(C)cc(=O)c2O)cc1 [1#]
Mouse ELP2 protein; [8]
  Kd: 118 µM
Mouse ELP2 protein; [7]
  koff: 0.234 s⁻¹
  kon: 1980 M⁻¹ s⁻¹
Mouse ELP2 protein; SPR
  dissociation rate (in words): much faster dissociation rates

## COc1cc(CCN)c(-c2csc(-c3ccc(O)cc3)n2)cc1OC [5#]
Mouse ELP2 protein; [8]
  Kd: 3.28 µM
Mouse ELP2 protein; [7]
  koff: 0.0122 s⁻¹
  kon: 3720 M⁻¹ s⁻¹
C2C12 cells [1]
  effect on TNF-α-induced inhibition of osteoblast differentiation (ALP stain and activity): significant ease to TNF-α-induced inhibition of osteoblast differentiation
  EC50: 12.2 µM
MC3T3-E1 cells [2]
  EC50: 18.2 µM
  effect on TNF-α-induced inhibition of osteoblast differentiation (ALP stain and activity): significant ease to TNF-α-induced inhibition of osteoblast differentiation
C2C12 cells [3]
  mineralization activity (Alizarin Red S stained spots): increased the red spot on the cell surface
MC3T3-E1 cells [4]
  mineralization activity (Alizarin Red S stained spots): increased the red spot on the cell surface
[5]
  expression level of osteogenic differentiation marker genes (COL-I, ALP, OCN, BMP-2, RUNX-2, OSX): raised
[6]
  expression of osteogenic differentiation marker proteins: increased

## O=C1c2ccccc2-c2c1c1ccccc1c(=O)n2NCCO [2#]
Mouse ELP2 protein; [8]
  Kd: 1.46 µM
Mouse ELP2 protein; [7]
  koff: 0.000241 s⁻¹
  kon: 165 M⁻¹ s⁻¹
C2C12 cells [1]
  effect on TNF-α-induced inhibition of osteoblast differentiation (ALP stain and activity): significant ease to TNF-α-induced inhibition of osteoblast differentiation
  EC50: 14.7 µM
MC3T3-E1 cells [2]
  EC50: 29.7 µM
  effect on TNF-α-induced inhibition of osteoblast differentiation (ALP stain and activity): significant ease to TNF-α-induced inhibition of osteoblast differentiation
C2C12 cells [3]
  mineralization activity (Alizarin Red S stained spots): increased the red spot on the cell surface
MC3T3-E1 cells [4]
  mineralization activity (Alizarin Red S stained spots): increased the red spot on the cell surface
[5]
  expression level of osteogenic differentiation marker genes (COL-I, ALP, OCN, BMP-2, RUNX-2, OSX): raised
[6]
  expression of osteogenic differentiation marker proteins: increased

## CC1CCCC2(C)CC3OC(=O)C(CN4CCN(C(=O)c5ccco5)CC4)C3C=C12 (centres unmarked) [8#]
Mouse ELP2 protein; [8]
  Kd: 0.0936 µM
Mouse ELP2 protein; [7]
  koff: 0.00105 s⁻¹
  kon: 11200 M⁻¹ s⁻¹
C2C12 cells [1]
  effect on TNF-α-induced inhibition (ALP), data not shown: only slightly easing of the inhibition resulting from TNF-α

## COc1ccc(C(CC(=O)NC(C)C(N)=O)c2oc(C)cc(=O)c2O)cc1 (centres unmarked) [7#]
Mouse ELP2 protein
  Kd: 3.17 µM
  koff: 0.0011 s⁻¹
  kon: 347 M⁻¹ s⁻¹
C2C12 cells [1]
  effect on TNF-α-induced inhibition (ALP), data not shown: only slightly easing of the inhibition resulting from TNF-α

## COc1cccc(N2Cc3nn(Cc4ccccc4Cl)c(=O)n3C2=O)c1 [6#]
Mouse ELP2 protein; [7]
  koff: 0.415 s⁻¹
  kon: 2.54 M⁻¹ s⁻¹

## Cc1cc(O)cc(=O)n1C[C@@H](O)c1cccc(O)c1 [11#]
Mouse ELP2 protein; [8]
  Kd: 3.48 µM
Mouse ELP2 protein; [7]
  koff: 0.000774 s⁻¹
  kon: 222 M⁻¹ s⁻¹
C2C12 cells [1]
  effect on TNF-α-induced inhibition (ALP), data not shown: only slightly easing of the inhibition resulting from TNF-α
